Assay [1] relates to larvae of cabbage moth (Plutella xylostera). Nature of the assay: Insecticidal effect against larvae of cabbage moth (leaf immersion). Format: in vivo. As for the experimental part: Insecticidal Effect Against Larvae of Cabbage Moth (Plutella xylostera)
(§1) A piece of cabbage leaf (diameter: 6 cm) was immersed for 1 minute in a water-diluted solution of the insecticide (wettable powder) of the present invention prepared according to the prescription of Formulation Example 1. After immersion, the cabbage was air-dried and placed in a plastic cup (inner diameter: 7 cm), and then inoculated with 5 larvae of cabbage moth in the third stage therein (1-concentration, 2-repetion). The cup was allowed to stand in a room thermostated at 25° C. Four days after the inoculation, dead or alive larvae or suffuring larvae were counted, and mortality (%) was calculated wherein a suffering larva was regarded as 0.5 dead larva. When compounds of Compound Nos. described below were subjected to the test, the mortality was 100% in a compound concentration of 500 ppm. In the meanwhile, the Compounds Nos. correspond to ones in Tables 1 to 8.

Assay [2] relates to larvae of common cutworm (Spodoptera litura). Nature of the assay: Insecticidal effect against larvae of common cutworm (leaf immersion). As to conditions: in Brassica oleracea. Type of assay: in vivo. As for the experimental part: Insecticidal Effect Against Larvae of Common Cutworm (Spodoptera litura)
as §1, with “powder),of” for “powder) of”, “common cutworm” for “cabbage moth”

With `CC(=NNc1ccc(C(F)(F)F)cc1)C(=O)NCc1ccc(Cl)nc1` [Compound No. 63, N-(6-chloro-3-pyridylmethyl)-2-(4-trifluoromethylphenyl hydrazono) propionic acid amide], the mortality at 500 ppm in assay [1] and in assay [2] was 100% in each case.
Take `CC(=NN(C)c1ccc(C(F)(F)F)cc1)C(=O)NCc1ccc(Cl)cc1` [Compound No. 109, N-(4-chlorobenzyl)-2-[N-methyl-N-(4-trifluoromethylphenyl) hydrazono]propionic acid amide]: the mortality at 500 ppm in assay [1] and in assay [2] was 100% each time.
On to `CC(=NN(C)c1ccc(C(F)(F)F)cc1)C(=O)NCc1ccc(Cl)nc1` [Compound No. 110, N-(6-chloro-3-pyridylmethyl)-2-[N-methyl-N-(4-trifluoromethylphenyl) hydrazono]propionic acid amide], for which the mortality at 500 ppm in assay [1] and in assay [2] was 100% each time.
Consider `C/C(=N/Nc1ccc(Cl)cc1)C(=O)NNc1ccc(Cl)cc1` [Compound No. 105, (Z)-N′-(4-chlorophenyl)-2-(4-chlorophenyl hydrazono) propionic acid hydrazide], for which the mortality at 500 ppm in assay [1] and in assay [2] was 100% throughout.
In assay [1], `CCOCC(=NNc1ccc(C(F)(F)F)cc1)C(=O)NCc1ccc(Cl)nc1` [Compound No. 170, N-(6-chloro-3-pyridylmethyl)-3-ethoxy-2-(4-trifluoromethylphenyl hydrazono) propionic acid amide] came in with a mortality at 500 ppm of 100%.
With `N#CC(=NNc1ccc(C(F)(F)F)cc1)C(=O)NCc1ccc(Cl)nc1` [Compound No. 184, N-(6-chloro-3-pyridylmethyl)-2-cyano-2-(4-trifluoromethylphenyl hydrazono) acetic acid amide], the mortality at 500 ppm in assay [1] and in assay [2] was 100% throughout.
`CNC(=NNc1ccc(C(F)(F)F)cc1)C(=O)NCc1ccc(Cl)nc1` [Compound No. 191, N-(6-chloro-3-pyridylmethyl)-2-methylamino-2-(4-trifluoromethylphenyl hydrazono) acetic acid amide]: the mortality at 500 ppm in assay [1] and in assay [2] was 100% throughout.
In assay [1], `COc1ccc(CNC(=O)C(C)=NNc2ccc(Cl)cc2)cc1` [Compound No. 93, N-(4-methoxybenzyl)-2-(4-chlorophenyl hydrazono) propionic acid amide] had a mortality at 500 ppm of 100%.
`CC(=NNc1ccc(C(F)(F)F)cc1)C(=O)NCc1ccc(Cl)cc1` [Compound No. 62, N-(4-chlorobenzyl)-2-(4-trifluoromethylphenyl hydrazono) propionic acid amide]: the mortality at 500 ppm in assay [1] and in assay [2] was 100% each time.
As to `C/C(=N\Nc1ccc(Cl)cc1)C(=O)NNc1ccc(Cl)cc1` [Compound No. 104, (E)-N′-(4-chlorophenyl)-2-(4-chlorophenyl hydrazono) propionic acid hydrazide], the mortality at 500 ppm in assay [1] and in assay [2] was 100% each time.
For `O=C(NCc1ccc(Cl)nc1)C(Cl)=NNc1ccc(C(F)(F)F)cc1` [Compound No. 5, N-(6-chloro-3-pyridylmethyl)-2-chloro-2-(4-trifluoromethylphenyl hydrazono) acetic acid amide], in assay [1], the mortality at 500 ppm was found to be 100%.
